Results as given in US20140335050A1, “METHODS, COMPOSITIONS, AND KITS FOR THE TREATMENT OF CANCER” (The General Hospital Corporation, priority 2011, published 2014).

What was measured:
A375 melanoma cell line = experiment: Antibody staining and flow cytometry (intracellular Melan-A/MART-1, gp100, TRP-2; surface MHC Class I); assay type: cell-based, human
Experimental: (§1) Cells were fixed with 1% formaldehyde, permeabilized with 0.1% saponin, stained with monoclonal antibodies to melanocyte antigens. Antibodies were obtained with specificity for: MART-1 from Vector Labs (Burlingame, Calif.); gp100 HMB45 from DakoCytomation (Carpinteria, Calif.) and then visualized with goat anti-mouse FITC-conjugated secondary antibody from Invitrogen (Fredrick, Md.). The level of EGFP was determined by flow cytometry of unfixed cells that were washed and resuspended in 1×PBS.
(§2) Cells were plated at a density of 1×10^5 in 1 ml of medium in a 24-well plate and cultured for varying times as indicated in results. […] After incubation, cells were collected by trypsinization and then evaluated by flow cytometry.
(§3) Intracellular staining and flow cytometric analyses of cytoplasmic Melan-A/MART-1, and gp100 expression were performed as described previously. Cells were fixed with 1% formaldehyde, permeabilized with 0.1% saponin, stained with monoclonal antibodies to melanocyte antigens. Antibodies were obtained with specificity for: Melan-A/MART-1 from Vector Labs (Burlingame, Calif.); gp100/HMB45 from DakoCytomation (Carpinteria, Calif.) and then visualized with goat anti-mouse FITC-conjugated secondary antibody from Invitrogen (Frederick, Md.). The level of EGFP was determined by flow cytometry of unfixed cells washed and resuspended in 1×PBS. Surface staining of MHC Class I was carried out using the antibody W6/32 on cells harvested with Cell Stripper from MediaTech Inc. (Manassas, Va.) and carried out on ice.
(§4) Cell were seeded at 1×10^6 cells in a T25 flask with 10 ml of media for the 4 day IFN-beta pre-treatments. Cells were then harvested and plated in 24 well plate at 1×10^5 cells per well in 1 ml of media for 3 day treatments.
(§5) For surface staining of HLA Class I and II antigens, cells were harvested using CellStripper™ from Mediatech (Manassas, Va.). All staining steps were performed on ice. Following a first incubation with antibody to Class I (W6/32) or Class II (L243) for 30 minutes. Stained cells were washed twice with cold PBS and then stained with a goat anti-mouse FITC secondary antibody to allow for quantitative analysis by flow cytometry. For evaluation of cytoplasmic antigens, including Melan-A/MART-1 and gp100, cells were first fixed in paraformaldehyde and permeabilized with saponin as previously described. Staining for cytoplasmic antigens was carried out at room temperature (22° C.).

MUX melanoma cell line = experiment: as above; assay type: cell-based, human
Experimental: as §1, §2, §3, §4, §5

MU89 melanoma cell line = experiment: Antibody staining and flow cytometry (intracellular Melan-A/MART-1, gp100, TRP-2; surface MHC Class I/II); assay type: cell-based, human
Experimental: as §1, §2, §3, §4, §5

[1] = system: B16 murine melanoma cell line; experiment: Antibody staining and flow cytometry (intracellular gp100, TRP-2; surface Class I with H2kb antibody); assay type: cell-based, mouse; details: 3 days, 17-AEP 0.5, PU-H71 0.15, CCT018159 2.5 μg/ml
Description: To further evaluate enhancement of immune recognition of cancer cells by inhibition of Hsp90 function, it was shown that a total of twelve different Hsp90 inhibitors were active in several molecular and cellular assays on a series of cell lines, including eleven human melanomas, the murine B16 melanoma, and two human gliomas. […] The melanomas all express varying levels of differentiation antigens Melan-A/MART-1, gp100 and TRP-2, as well as the MHC-Class I antigen (as evidenced by W6/32 antibody staining) that is required for T cell recognition of the tumor cells. Each of these antigens is enhanced by all of the Hsp90 inhibitors. […] Similar to the human counterparts, the B16 mouse tumor also can be induced to express enhanced antigen levels upon 3-day exposure to each of the Hsp90 inhibitors (Table 16). The mouse H-2 Class I antigen is likewise induced by the Hsp90 inhibitors.
General culture conditions for cell propagation and the origins of most of the melanoma cell lines have been previously described. Melanoma cells were cultured in DMEM with 10% FBS. The glioma cell lines U87 MG and U118 MG were obtained from the American Type Culture Collection (ATCC). The B16 murine melanoma cell line was provided by Dr. Andrew Hurwitz and has been previously described. The T cell receptor (TCR)-negative Jurkat T cell line derivative J.RT3-T3.5 was obtained from ATCC. The construction of the J.RT3-T3.5 cell line expressing a Melan-A/MART-1 specific TCR has been described previously. T cells were cultured in RPMI with 10% FBS. IFN-beta-1a (Avonex) was obtained from Biogen-Idec (Cambridge, Mass.) and reconstituted according to the manufacturer's recommendations. The Hsp90 inhibitor radicicol was purchased from A.G. Scientific (San Diego, Calif.). Novobiocin was ordered from BioMol (Plymouth Meeting, Pa.). 17-DMAG was obtained from LC laboratories (Woburn, Mass.). 17-AEP-AP was purchased from InVivoGen (San Diego, Calif.). […] Gedunin, CCT018159, and celastrol were purchased from Tocris (Ellisville, Mo.). Selleck Chemicals (Houston, Tex.) provided NVP-AUY922 and BIIB021.
Cells were plated at a density of 1×10^5 in 1 ml of medium in a 24-well plate and cultured for varying times as indicated in results. Typically, 3 days of culture in the presence of Hsp90 inhibitors was optimal for the functional studies performed. After incubation, cells were collected by trypsinization and then evaluated by flow cytometry.
as §3

U-87 MG glioma cell line = experiment: Antibody staining and flow cytometry (intracellular gp100; surface MHC Class I); assay type: cell-based, human; details: U-87 MG; 3 days; IFN-beta 5000 Units/ml, 17-AEP 0.5, PU-H71 0.3, CCT018159 5.0 μg/ml
Experimental: as §1, §2, §3

[2] = 3 days, IFN-beta 5000 Units/ml, 17-AEP 0.5, PU-H71 0.15, CCT018159 2.5 μg/ml
[3] = MUX (BRAF M/M, NRAS WT), 3 days, 17-AEP 0.50, CCT018159 5.00, PU-H71 0.30 μg/ml
[4] = MUX, 3 days, IFN-beta 5000 Units/ml, 17-AEP 1.0, PU-H71 0.3, CCT018159 10.0 μg/ml
[5] = MU89 (BRAF M/WT, NRAS WT), 3 days, 17-AEP 0.50, CCT018159 10.00, PU-H71 0.30 μg/ml
[6] = MU89, 3 days, IFN-beta 5000 Units/ml, 17-AEP 1.0, PU-H71 0.3, CCT018159 10.0 μg/ml

SMILES: CCc1cc(-c2n[nH]c(C)c2-c2ccc3c(c2)OCCO3)c(O)cc1O [CCT018159]
- Class I, fold increase relative to untreated control (A375 melanoma cell line; [2]): 1.9 fold
- Class I, geometric mean of surface staining (W6/32) (A375 melanoma cell line; [2]): 70
- MART-1, fold increase relative to untreated control (A375 melanoma cell line; [2]): 2.2 fold
- MART-1, geometric mean of intracellular staining (A375 melanoma cell line; [2]): 13
- TRP-2, fold increase relative to untreated control (A375 melanoma cell line; [2]): 2.3 fold
- TRP-2, geometric mean of intracellular staining (A375 melanoma cell line; [2]): 37
- gp100, fold increase relative to untreated control (A375 melanoma cell line; [2]): 2.1 fold
- gp100, geometric mean of intracellular staining (A375 melanoma cell line; [2]): 32
- MHC Class I, geometric mean of surface staining (W6/32) (A375 melanoma cell line; 4 day IFN-β pre-treatment (5000 Units/ml), then 3 days with fresh IFN-β and the labelled HSP90 inhibitor (label IFN-β: no inhibitor), 17-AEP 0.5, PU-H71 0.15, CCT018159 2.5): 181
- MHC Class I, geometric mean of surface staining (W6/32) (A375 melanoma cell line; 4 day IFN-β pre-treatment (5000 Units/ml), then 3 days without IFN-β with the labelled HSP90 inhibitor (label IFN-β: no inhibitor), 17-AEP 0.5, PU-H71 0.15, CCT018159 2.5): 139
- MHC Class I, geometric mean of surface staining (W6/32) (A375 melanoma cell line; single agent for 3 days, no IFN-β pre-treatment, IFN-β 5000 Units/ml, 17-AEP 0.5, PU-H71 […], CCT018159 2.5): 119
- MHC Class I, geometric mean of surface staining (W6/32) (A375 melanoma cell line; three days, IFN-β 5000 Units/ml, 17-AEP 0.5, PU-H71 […], CCT018159 2.5): 70
- HMB45, level of induction relative to untreated control cells (MUX melanoma cell line; [3]): 1.89
- MART-1, level of induction relative to untreated control cells (MUX melanoma cell line; [3]): 1.64
- Class I, fold increase relative to untreated control (MUX melanoma cell line; [4]): 1.7 fold
- Class I, geometric mean of surface staining (W6/32) (MUX melanoma cell line; [4]): 174
- MART-1, fold increase relative to untreated control (MUX melanoma cell line; [4]): 1.7 fold
- MART-1, geometric mean of intracellular staining (MUX melanoma cell line; [4]): 22
- TRP-2, fold increase relative to untreated control (MUX melanoma cell line; [4]): 1.0 fold
- TRP-2, geometric mean of intracellular staining (MUX melanoma cell line; [4]): 40
- gp100, fold increase relative to untreated control (MUX melanoma cell line; [4]): 1.5 fold
- gp100, geometric mean of intracellular staining (MUX melanoma cell line; [4]): 40
- MHC Class I, geometric mean of surface staining (W6/32) (MUX melanoma cell line; MUX, 4 day IFN-β pre-treatment (5000 Units/ml), then 3 days with fresh IFN-β and the labelled HSP90 inhibitor (label IFN-β: no inhibitor), 17-AEP 1, PU-H71 0.3, CCT018159 10 mg/ml): 599
- MHC Class I, geometric mean of surface staining (W6/32) (MUX melanoma cell line; MUX, 4 day IFN-β pre-treatment (5000 Units/ml), then 3 days without IFN-β with the labelled HSP90 inhibitor (label IFN-β: no inhibitor), 17-AEP 1, PU-H71 0.3, CCT018159 10 mg/ml): 397
- MHC Class I, geometric mean of surface staining (W6/32) (MUX melanoma cell line; MUX, single agent for 3 days, no IFN-β pre-treatment, IFN-β 5000 Units/ml, 17-AEP 1 μg/ml, PU-H71 0.3 μg/ml, CCT018159 10 μg/ml): 265
- MHC Class I, geometric mean of surface staining (W6/32) (MUX melanoma cell line; MUX, three days, IFN-β 5000 Units/ml, 17-AEP 1 μg/ml, PU-H71 0.3 μg/ml, CCT018159 10 μg/ml): 174
- HMB45, level of induction relative to untreated control cells (MU89 melanoma cell line; [5]): 3.92
- MART-1, level of induction relative to untreated control cells (MU89 melanoma cell line; [5]): 3.22
- Class I, fold increase relative to untreated control (MU89 melanoma cell line; [6]): 4.2 fold
- Class I, geometric mean of surface staining (W6/32) (MU89 melanoma cell line; [6]): 75
- MART-1, fold increase relative to untreated control (MU89 melanoma cell line; [6]): 3.0 fold
- MART-1, geometric mean of intracellular staining (MU89 melanoma cell line; [6]): 99
- TRP-2, fold increase relative to untreated control (MU89 melanoma cell line; [6]): 2.7 fold
- TRP-2, geometric mean of intracellular staining (MU89 melanoma cell line; [6]): 252
- gp100, fold increase relative to untreated control (MU89 melanoma cell line; [6]): 2.2 fold
- gp100, geometric mean of intracellular staining (MU89 melanoma cell line; [6]): 273
- MHC Class I, geometric mean of surface staining (W6/32) (MU89 melanoma cell line; MU89, 4 day IFN-β pre-treatment (5000 Units/ml), then 3 days with fresh IFN-β and the labelled HSP90 inhibitor (label IFN-β: no inhibitor), 17-AEP 1, PU-H71 0.3, CCT018159 10 mg/ml): 281
- MHC Class I, geometric mean of surface staining (W6/32) (MU89 melanoma cell line; MU89, 4 day IFN-β pre-treatment (5000 Units/ml), then 3 days without IFN-β with the labelled HSP90 inhibitor (label IFN-β: no inhibitor), 17-AEP 1, PU-H71 0.3, CCT018159 10 mg/ml): 232
- MHC Class I, geometric mean of surface staining (W6/32) (MU89 melanoma cell line; MU89, single agent for 3 days, no IFN-β pre-treatment, IFN-β 5000 Units/ml): 73
- MHC Class I, geometric mean of surface staining (W6/32) (MU89 melanoma cell line; MU89, three days, IFN-β 5000 Units/ml): 75
- Class I, fold increase relative to untreated control [1]: 6.8 fold
- Class I, geometric mean of surface staining (H2kb) [1]: 16
- TRP-2, fold increase relative to untreated control [1]: 3.9 fold
- TRP-2, geometric mean of intracellular staining [1]: 364
- gp100, fold increase relative to untreated control [1]: 5.2 fold
- gp100, geometric mean of intracellular staining [1]: 414
- Class I, fold increase relative to untreated control (U-87 MG glioma cell line): 1.0 fold
- Class I, geometric mean of surface staining (W6/32) (U-87 MG glioma cell line): 28
- gp100, fold increase relative to untreated control (U-87 MG glioma cell line): 2.5 fold
- gp100, geometric mean of intracellular staining (U-87 MG glioma cell line): 71
